Entries after “also recorded” stand apart in the source; their conditions may differ. Where no end group is shown, it is not given here.
Legend:
[1] = test system: C. caviae infected HeLa cells; experiment: Host cell death (condensed nuclei) in C. caviae infected cells; format: cell-based; details: peptide-treated HeLa cells; listed as EQ ID NO:7
Experimental: (§1) FIG. 12 depicts (A) low-magnification view of C. trachomatis LGV-L2 infected HeLa monolayers (30 h) treated with SEQ ID NO:7 or SEQ ID NO:11 peptides. (B) The frequency of condensed nuclei in treated cells is dependent on peptide concentration and Chlamydia infection. (C-D) Toxicity of CPAF inhibitors to Chlamydia-infected cells is observed in non-myeloid cells including human embryonic kidney cells HEK293 (C) and mouse embryo fibroblasts (D). […] (F-G) Cell death induced by anti-CPAF peptides requires Caspase-1 activation. HeLa cells infected with C. muridarum were treated with Ac-YVAD-CMK at 2 hpi, SEQ ID NO:7 peptide or SEQ ID NO:11 control peptide at 12 hpi and the percentage of infected cells with condensed nuclei was assessed at 48 hpi (F). Mouse lung fibroblasts (MLF) derived from congenic WT, ICE1^−/− and ASC^−/− animals were infected with C. muridarum and treated with the indicated concentrations of anti peptides 12 hpi. The percentage of infected cells with condensed nuclei was assessed at 48 hpi (G). LGV-L2 inclusions were immunostained with anti-L2 antisera and C. muridarum and C. caviae inclusions were immunostained with an anti-chlamydial LPS monoclonal antibody. Cell death in infected and uninfected cells treated with CPAF inhibitory peptides or control peptides was determined by counting the number of condensed nuclei of ˜1000 cells.

C. muridarum = C. muridarum growth in HeLa cells (recovered IFUs); format: cell-based; details: infected HeLa cells, recovered IFUs
Experimental: (§2) Cells were infected with an MOI of 1 and treated with CPAF inhibitor (SEQ ID NO:7) or control (SEQ ID NO:11) peptides at 12 hpi, fixed at 24 hpi and analyzed by IF with anti-L2 polyclonal antisera. Inclusion size was determined by measuring the inclusion diameter in μm by confocal microscopy of 50 infected cells. The number of cells with fragmented inclusions was determined by counting the number of infected cells out of 50 with more than one inclusion. (C) Sequence alignment and % sequence identify of full length CPAF and predicted inhibitory peptide sequence between C. trachomatis serovar LGV-L2, Chlamydia muridarum, and Chlamydophila caviae was determined using Geneious software (available at the Geneious website). […] GPIC or C. muridarum infected whole cell protein lysate was preincubated with SEQ ID NO:7 peptide or SEQ ID NO:11 control peptide, mixed with GST-IncC at 37° C., resolved by SDS-PAGE and stained with Coomassie blue. […] Inhibition of C. muridarum (E) and C. ceviae (F) growth was determined by counting the number of recovered IFUs. […] Inclusions were detected by IF with anti-LGV-L2 (A, B, E) antisera or anti-chlamydial LPS (F) monoclonal antibodies, and host nuclei sere detected by staining.

[2] = test system: epithelial cells infected with C. muridarum; experiment: Host cell death (condensed nuclei) in C. muridarum infected cells; format: cell-based; details: dose-dependent, peptide at 12 hpi
Experimental: as §1

C. muridarum CPAF = experiment: GST-IncC cleavage by lysate of C. muridarum infected cells; format: biochemical; details: infected whole cell lysate
Experimental: as §2

Caspase-1 = Caspase-1 activity in infected cells (FLICA, flow cytometry); format: cell-based, human; details: fluorescently labeled caspase-1 substrate
Experimental: FIG. 13 depicts (A) that Caspase-1 inhibitors block Chlamydia-mediated cell death. Infected cells were treated with the Caspase-1 inhibitor Ac-YVAD-CMK at 2 hpi, and increasing concentrations of CPAF inhibitor added at 12 hpi. Cells were fixed and the percentage of cells with condensed nuclei determined at 24 hpi. (B) Enhanced Caspase-1 activation in infected cells lacking CPAF activity. Infected cells were labeled with a cell-permeable fluorescent substrate of Caspase-1 and treated with inhibitory peptides, and Caspase-1 activity was monitored by flow cytometry. (C) Caspase-1 and ASC are required for Chlamydia-mediated host cell death. […] Chlamydia replication and generation of IFUs in MLFs was assessed as in FIG. 9. […]
Subsequent experiments tested whether CPAF inhibition led to the onset of apoptosis in infected cells. […] Apoptotic cells were identified with an AnnexinV-FLOUS Staining Kit (available from Roche) and activation of Caspase-1 was determined by labeling active Caspase-1 with a Carboxyfluorescein FLICA Detection Kit (available from Immunochemistry) and analyzed in a FACScanner (available from BD Biosciences). […] Consistent with result, Caspase-3 cleavage, another characteristic of apoptotic cell death, was not detected (FIG. 11C).

CPAF = CPAF (Chlamydia trachomatis serovar D, UniProt O84866); experiment: FRET-based CPAF inhibition assay with model substrate SEQ ID NO:10; format: biochemical, C. trachomatis; set-up: 6xHis; made in house; host or cells: E. coli BL21 (DE3), plasmid pET30b-CPAF
Chain of CPAF (O84866 276-601): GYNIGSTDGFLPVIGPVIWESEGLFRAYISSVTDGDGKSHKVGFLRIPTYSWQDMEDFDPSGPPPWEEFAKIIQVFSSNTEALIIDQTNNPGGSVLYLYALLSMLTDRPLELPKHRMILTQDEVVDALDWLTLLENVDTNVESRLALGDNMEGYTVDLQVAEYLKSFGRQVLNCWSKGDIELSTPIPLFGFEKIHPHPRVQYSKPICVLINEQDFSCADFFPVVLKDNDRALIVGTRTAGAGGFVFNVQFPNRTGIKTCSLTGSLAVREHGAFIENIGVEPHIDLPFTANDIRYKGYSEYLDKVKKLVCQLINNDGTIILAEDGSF
Chain of CPAF (O84866 1-234, added parts left off): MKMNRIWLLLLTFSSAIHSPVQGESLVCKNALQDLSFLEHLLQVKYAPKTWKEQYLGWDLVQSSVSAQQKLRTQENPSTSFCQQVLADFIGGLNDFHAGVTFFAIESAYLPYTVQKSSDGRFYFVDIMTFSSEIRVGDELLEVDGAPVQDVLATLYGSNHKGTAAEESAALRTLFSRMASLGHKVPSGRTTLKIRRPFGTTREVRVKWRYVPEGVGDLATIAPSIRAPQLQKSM
Experimental: FRET-based assays comprised an Abz-tagged model CPAF substrate with an additional C-terminal 3-nitrotyrosine quencher:
The 3-nitrotyrosine moiety quenches Abz fluorescence until substrate cleavage occurs. FRET-based assays were performed in optical plates in a final volume of 100 μL containing 150 mM NaCl, 50 mM Tris pH 7.50, purified CPAF (62.5 nM), varying concentrations of model CPAF substrate (0.5 mM), and varying concentrations of each candidate compound (0-240 μM). IC50 values were determined by pre-incubating CPAF with varying concentrations of candidate compound for 5 min at room temperature prior to initiation of the reaction via the addition of model CPAF substrate. Reactions were initiated and read continuously at 420 nm for 10 minutes using a fluorescence microplate reader. The percentage of substrate converted was calculated using initial velocity over the first 90 seconds and converting RFU to concentration based on a standard curve with Abz followed by analysis in Graffit 6.0 using the equation of Example 8.

SLFYSPMVPHFWAELRNHYATSGLKRRRRRRRRR-NH2 [SEQ ID NO:7]
Condensed nuclei / cell death in C. caviae infected cells [1]: do not cause cell death
C. muridarum replication (C. muridarum): blocked C. muridarum replication; also recorded: impairs growth in C. muridarum
Number of condensed nuclei in C. muridarum infected cells [2]: marked increase in the number of condensed nuclei
Inhibition of substrate cleavage by C. muridarum CPAF (C. muridarum CPAF): prevented cleavage of substrate; also recorded: inhibits C. muridarum CPAF
Caspase-1 activity in infected cells (Caspase-1): significantly increased
IC50 (CPAF): 30 ± 6 nM

Reference: patent publication US8617563B2, “Antichlamydial agents” (Duke University, priority 2011, dated 2013)
